{"source": "patent US4026857A", "about": "“Epoxy emulsion water-based coating” (priority 1975, dated 1977)", "key": {"[1]": {"test": "Solubility of solvents in water and of water in solvents", "format": "physicochemical", "details": "for Solubility, Solvent in H2 O: solvent in water; for Solubility, H2 O in Solvent: water in solvent"}, "[2]": {"test": "Emulsion formation with different organic solvents", "format": "physicochemical", "details": "50 parts solvent, 100 parts epoxy resin, 14 parts surfactant, 150 parts deionized water", "description": "A series of emulsions were prepared using 100 parts of an epoxy resin (diglycidylether of bisphenol A) having an epoxy equivalent weight of 2,000-2,500, 50 parts of a solvent, 14 parts of surfactant having the formula [drawing 1] wherein a+ c is about 190-200, b is about 60-70, and average molecular weight is about 12,500, and 150 parts of deionized water. In each emulsion a different solvent was used. Each emulsion, as well as other emulsions whose formulations are described in this specification, was prepared using the following general procedure:\nThe epoxy resin was dissolved in the solvent by heating at 130° C. with agitation. The resin solution was then cooled to about 65° C. and placed in high speed dispersing equipment. The surfactant was added. (In formulations wherein the emulsion coating was to be baked, cross-linking catalyst and curing agent, as defined hereinafter, were also added at this point.) Part of the water (about 100 parts) was then slowly added under high speed agitation (approximately 2,000 ft./min. peripheral speed) to pass the inversion point. Thereupon the agitation speed was slowed down to about 1,000 ft./min. and the balance of the water was added.\nIn each emulsion, a different organic solvent was used. […] Each emulsion formed was applied, by wire wound bar application, to a test panel of lubricated electrolytic tinplated steel. […]"}}, "data": [{"compound": "CCOCCO", "note": "[Ethyl Cellosolve]", "values": [{"measurement": "Solubility, Solvent in H2 O", "setting": "[1]", "result": ".infin."}, {"measurement": "Solubility, H2 O in Solvent", "setting": "[1]", "result": ".infin."}]}, {"compound": "CCCCCCOCCO", "note": "[Hexyl Cellosolve, 2-Hexoxyethanol]", "values": [{"measurement": "Solubility, Solvent in H2 O", "setting": "[1]", "result": 0.99, "unit": "wt. %"}, {"measurement": "Solubility, H2 O in Solvent", "setting": "[1]", "result": 18.8, "unit": "wt. %"}]}, {"compound": "COCCO", "note": "[Methyl Cellosolve]", "values": [{"measurement": "Solubility, Solvent in H2 O", "setting": "[1]", "result": ".infin."}, {"measurement": "Solubility, H2 O in Solvent", "setting": "[1]", "result": ".infin."}]}, {"compound": "OCCOCCOc1ccccc1", "note": "[diethylene glycol monophenyl ether]", "values": [{"measurement": "emulsion formation", "setting": "[2]", "result": "an emulsion could not be formed"}]}, {"compound": "CC(C)CC(=O)CC(C)C", "note": "[diisobutyl ketone]", "values": [{"measurement": "emulsion formation", "setting": "[2]", "result": "an emulsion could not be formed"}]}]}
